Drawing on the RepoRT retention time repository (doi:10.1021/acs.analchem.2c02893), this text covers LC retention time for 76 compounds.

The nature of this series: RP, Thermo Scientific Acclaim RSLC 120 C18, 100 × 2.1 mm, 2.2 µm, 30 °C, 0.2 mL/min, estimated dead time 1.1 min; A: 90% water + 10% methanol + 0.01% formic acid + 5 mM ammonium formate, pH 3.61; B: methanol + 0.01% formic acid + 5 mM ammonium formate, pH 3.61; gradient (min/%B) 0/1 1/1 2/39 13/99.9 15/99.9 15.1/1 20.1/1. Conditions: stereoisomer not certain.
Turning to `CC=CC(=O)N(CC)c1ccccc1C` [Crotamiton], the LC retention time is 9.24 min.

In the case of `CC(=O)c1ccc2c(c1)N(CCCN(C)C)c1ccccc1S2` [Acepromazine], the LC retention time was 7.47 min.

For `CN1CCN(CCC=C2c3ccccc3Sc3ccc(S(=O)(=O)N(C)C)cc32)CC1` [Thiothixene], the LC retention time was 8.38 min.

As for `CCOP(=O)(Sc1ccccc1)Sc1ccccc1` [Edifenphos], the LC retention time is 10.8 min.

For `CCCCCn1cc(C(=O)Nc2cccc3ccccc23)c2ccccc21` [NNEI], the LC retention time was 11.7 min.

On to `CC(CN1c2ccccc2Sc2ccccc21)N(C)C` (stereo unspecified) [Promethazine], for which the LC retention time is 7.53 min.

Regarding `N#CCNC(=O)c1cnccc1C(F)(F)F` [Flonicamid], the LC retention time is 4.22 min.

Consider `CC(C)(C)c1n[nH]c(=O)n(N)c1=O` [Metribuzin-Diketo (DK)], for which the LC retention time was 5.89 min.

Regarding `OCC(O)CN1CCN(c2ccccc2)CC1` (stereo unspecified) [Dropropizine], the LC retention time was 3.79 min.

Consider `COC(=O)C(NC(=O)c1nn(CC2CCCCC2)c2ccccc12)C(C)C` (stereo unspecified) [MA-CHMINACA], for which the LC retention time is 12.4 min.

With `O=[N+]([O-])c1cc(C(F)(F)F)c(Cl)c([N+](=O)[O-])c1Nc1ncc(C(F)(F)F)cc1Cl` [Fluazinam], the LC retention time was 12.3 min.

As for `O=C(Nc1ccc(C(=O)O)c(O)c1)c1ccccc1` [Salicylic acid-4-Benzamido], the LC retention time was 5.47 min.

As to `CCC1OC(=O)CC(O)C(C)C(OC2OC(C)C(O)C(N(C)C)C2O)C(CCN2CC(C)CC(C)C2)CC(C)C(=O)C=CC(C)=CC1COC1OC(C)C(O)C(OC)C1OC` (stereo unspecified) [Tilmicosin], the LC retention time was 6.69 min.

`CN(C)c1ccc(N=Nc2ccccc2)cc1` [Butter yellow]: the LC retention time was 12.4 min.

Take `Cc1nnc(-c2ccccc2)c(=O)[nH]1` [Metamitron-desamino]: the LC retention time was 5.29 min.

In the case of `Cc1cccc(C)c1N(Cn1cccn1)C(=O)C(=O)O` [Metazachlor OA], the LC retention time was 5.09 min.

With `O=C(NC(=O)c1c(F)cccc1F)Nc1cc(Cl)c(F)c(Cl)c1F` [Teflubenzuron], the LC retention time was 12.5 min.

For `Nc1ncnc2c1ncn2Cc1c(F)cccc1Cl` [Arprinocid], the LC retention time was 6.7 min.

With `Cc1ccc(C(=CCN2CCCC2)c2cccc(C=CC(=O)O)n2)cc1` [Acrivastine], the LC retention time was 6.66 min.

Consider `CC(N)Cc1ccc(F)cc1` (stereo unspecified) [Amphetamine (4-F-)], for which the LC retention time was 4.39 min.

As to `CNC(=N[N+](=O)[O-])NCc1cnc(Cl)s1` [Clothiandin], the LC retention time is 4.9 min.

As for `CC(C)N(C(=O)CS(=O)(=O)O)c1ccc(F)cc1` [Flufenacet-ESA], the LC retention time was 5.71 min.

With `CN(C)CCN(Cc1ccc(Cl)cc1)c1ccccn1` [Chloropyramine], the LC retention time was 7.09 min.

For the compound `CCOC(=O)C1(c2ccccc2)CCN(CCC(C#N)(c2ccccc2)c2ccccc2)CC1` [Diphenoxylate], the LC retention time was 10.4 min.

As for `CC12CCC3C(CCC4=CC(=O)CCC43C)C1CCC2=O` (stereo unspecified) [A4 (4-androsten-3 17-dione)], the LC retention time was 9.36 min.

As to `COCCOCCOC` [Diglyme], the LC retention time was 3.9 min.

Turning to `CC(C)(C)C(O)C(Cc1ccc(Cl)cc1Cl)n1cncn1` (stereo unspecified) [Diclobutrazol], the LC retention time was 10.7 min.

In the case of `CCCCCCCCCCCCCCCCCC[N+](C)(C)CCCCCCCCCCCCCCCCCC` [Dimethyldioctadecylammonium], the LC retention time is 15 min.

Take `CCC(=O)c1ccc2c(c1)N(CCCN(C)C)c1ccccc1S2` [Promazine-Propionyl]: the LC retention time was 8.49 min.

On to `COC(=O)C(NC(=O)c1nn(CCCCCF)c2ccccc12)C(C)C` (stereo unspecified) [AMB-5F], for which the LC retention time was 10.5 min.

As for `O=C(c1cccc2ccccc12)c1cn(CCCCO)c2ccccc12` [JWH-073-M-4-OH-Butyl], the LC retention time is 9.56 min.

As for `CC(C(=O)O)N(C(=O)c1ccccc1)c1ccc(F)c(Cl)c1` (stereo unspecified) [Flamprop], the LC retention time is 8.6 min.

Take `CC(C)(C)C(O)C(=Cc1ccc(Cl)cc1Cl)n1cncn1` (stereo unspecified) [Diniconazole]: the LC retention time was 11.5 min.

Take `CNC(C)Cc1ccc2c(c1)OCO2` (stereo unspecified) [MDMA]: the LC retention time was 4.18 min.

Consider `CCCCN1CCCCC1C(=O)Nc1c(C)cccc1C` (stereo unspecified) [Bupivacaine], for which the LC retention time was 6.18 min.

`OCCOCCN1CCN(C2=Nc3ccc(O)cc3Sc3ccccc32)CC1` [Quetiapine-Hydroxy]: the LC retention time is 4.99 min.

As to `CN(C)C(=O)OC1N=C(c2ccccc2)c2cc(Cl)ccc2N(C)C1=O` (stereo unspecified) [Camazepam], the LC retention time is 10 min.

For the compound `CN(C)CCCN1c2ccccc2CCc2ccc(Cl)cc21` [Clomipramine], the LC retention time was 9.21 min.

Take `Nc1c([N+](=O)[O-])ccc(Oc2ccccc2)c1Cl` [Aclonifen]: the LC retention time is 10.9 min.

For `CCCCCCOC(=O)NC(=N)c1ccc(NCc2nc3cc(C(=O)N(CCC(=O)OCC)c4ccccn4)ccc3n2C)cc1` [Dabigatran etexilate], the LC retention time is 9.29 min.

For the compound `COP(=S)(OC)Oc1ccc(SC)c(C)c1` [Fenthion], the LC retention time is 11 min.

With `CN(C)CCCC1(c2ccc(F)cc2)OCc2cc(C#N)ccc21` (stereo unspecified) [Citalopram], the LC retention time is 6.59 min.

With `CC(=O)Nc1c(I)c(C(=O)O)c(I)c(C(=O)NCCO)c1I` [Ioxitalamin acid], the LC retention time was 2.09 min.

As for `CCCCCn1nc(C(=O)Oc2cccc3ccccc23)c2ccccc21` [SDB-005], the LC retention time was 13.1 min.

Consider `CCC(=O)OC(OP(=O)(CCCCc1ccccc1)CC(=O)N1CC(C2CCCCC2)CC1C(=O)O)C(C)C` (stereo unspecified) [Fosinopril], for which the LC retention time is 12.4 min.

As to `CN(C)S(=O)(=O)Nc1ccccc1` [DMSA (N N-Dimethylaminosulfanilide)], the LC retention time was 6.28 min.

In the case of `CCCc1nc(C)c2c(=O)[nH]c(-c3cc(S(=O)(=O)N4CCN(CCO)CC4)ccc3OCC)nn12` [Vardenafil-Hydroxy], the LC retention time was 8.05 min.

In the case of `Cc1onc(-c2ccccc2)c1-c1ccc(S(N)(=O)=O)cc1` [Valdecoxib], the LC retention time is 7.37 min.

`COC(=O)CCc1ccc(OCC(O)CNC(C)C)cc1` (stereo unspecified) [Esmolol]: the LC retention time is 5.18 min.

Consider `CCOP(=S)(NC(C)CC)Oc1cc(C)ccc1[N+](=O)[O-]` (stereo unspecified) [Butamifos], for which the LC retention time was 11.2 min.

`CC(C)(C(=O)O)c1ccc(C(O)CCCN2CCC(C(O)(c3ccccc3)c3ccccc3)CC2)cc1` (stereo unspecified) [Fexofenadine]: the LC retention time was 7.68 min.

Consider `COP(=S)(OC)Oc1ccc(S(C)(=O)=O)c(C)c1` [Fenthion-sulfon], for which the LC retention time was 7.57 min.

`CN(C)C(=O)Nc1ccc(Oc2ccc(Cl)cc2)cc1` [Chloroxuron (Chloroxifenidim)]: the LC retention time is 9.99 min.

Consider `CSC1=NC(C)(c2ccccc2)C(=O)N1Nc1ccccc1` (stereo unspecified) [Fenamidone], for which the LC retention time was 9.22 min.

On to `NC(=O)N=C1SCCN1Cc1ccc(Cl)nc1` [Thiacloprid-amide], for which the LC retention time is 4.83 min.

With `CSC(C)=NOC(=O)N(C)SN(C)C(=O)ON=C(C)SC` [Thiodicarb], the LC retention time is 7.64 min.

`O=c1[nH]cnc2[nH]ncc12` [Allopurinol]: the LC retention time was 2.19 min.

On to `Cc1ccc(N)c(C)c1` [Dimethylaniline (2.4-) (Metabolite Amitraz)], for which the LC retention time was 5.04 min.

With `NCCCCC(NC(CCc1ccccc1)C(=O)O)C(=O)N1CCCC1C(=O)O` (stereo unspecified) [Lisinopril], the LC retention time is 3.98 min.

With `Nc1[nH]c(=O)ncc1F` [Cytosine-5-Fluoro (broad peak)], the LC retention time is 1.43 min.

For `c1coc(-c2nc3ccccc3[nH]2)c1` [Fuberidazole], the LC retention time is 6.48 min.

In the case of `COc1ccccc1OCC(O)CO` (stereo unspecified) [Guaifenesin], the LC retention time is 5.11 min.

As to `CN(C)CC(CN1c2ccccc2Sc2ccccc21)N(C)C` (stereo unspecified) [Promazine-amino], the LC retention time was 8.54 min.

In the case of `CN1C2CCC1C(C(=O)O)C(OC(=O)c1ccccc1)C2` (stereo unspecified) [Benzoylecgonine], the LC retention time was 4.68 min.

Turning to `CC(=NC#N)N(C)Cc1ccc(Cl)nc1` [Acetamiprid], the LC retention time was 5.17 min.

For `CN1CCCCC(n2cc(C(=O)c3cccc4ccccc34)c3ccccc32)C1` (stereo unspecified) [AM-1220-Azepane], the LC retention time was 8.61 min.

For the compound `CCNc1nc(NC(C)CC)nc(OC)n1` (stereo unspecified) [Secbumeton], the LC retention time was 8.79 min.

Consider `CCOCCOC(=O)C(C)Oc1ccc(Oc2ncc(C(F)(F)F)cc2Cl)cc1` (stereo unspecified) [Haloxyfop ethoxyethyl ester], for which the LC retention time is 12.2 min.

For `CCNC1CC(C)S(=O)(=O)c2sc(S(N)(=O)=O)cc21` (stereo unspecified) [Dorzolamide], the LC retention time is 3.19 min.

As to `CC(C)[N+](C)(CCOC(=O)C1c2ccccc2Oc2ccccc21)C(C)C` [Propantheline (I+)], the LC retention time is 7.35 min.

Turning to `CCCCCn1cc(C(=O)Cc2ccccc2OC)c2ccccc21` [JWH-250], the LC retention time is 11.8 min.

Regarding `CCOP(=O)(OCC)SCCSCC.CCOP(=S)(OCC)OCCSCC` [Demeton], the LC retention time was 8.91 min.

Take `CNC(C)Cc1ccccc1OC` (stereo unspecified) [Methoxyphenamine]: the LC retention time was 4.69 min.

Regarding `Nc1cc(-c2ccncc2)c[nH]c1=O` [Amrinone], the LC retention time is 2.88 min.

Consider `O=c1oc2ccccc2c(O)c1C(CC(O)c1ccc(-c2ccc(Br)cc2)cc1)c1ccccc1` (stereo unspecified) [Bromadiolone], for which the LC retention time is 11.5 min.

With `CCCC(C(=O)OCCN(CC)CC)(c1ccccc1)c1ccccc1` [Proadifen], the LC retention time was 9.41 min.
